# From BindingDB's records for doi:10.1016/j.bioorg.2014.02.001 (University of Delhi, 2014)
# Molecular target: T1, 3-phosphoinositide-dependent protein kinase 1 (Homo sapiens, UniProt O15530)
# T1 sequence (O15530 whole entry): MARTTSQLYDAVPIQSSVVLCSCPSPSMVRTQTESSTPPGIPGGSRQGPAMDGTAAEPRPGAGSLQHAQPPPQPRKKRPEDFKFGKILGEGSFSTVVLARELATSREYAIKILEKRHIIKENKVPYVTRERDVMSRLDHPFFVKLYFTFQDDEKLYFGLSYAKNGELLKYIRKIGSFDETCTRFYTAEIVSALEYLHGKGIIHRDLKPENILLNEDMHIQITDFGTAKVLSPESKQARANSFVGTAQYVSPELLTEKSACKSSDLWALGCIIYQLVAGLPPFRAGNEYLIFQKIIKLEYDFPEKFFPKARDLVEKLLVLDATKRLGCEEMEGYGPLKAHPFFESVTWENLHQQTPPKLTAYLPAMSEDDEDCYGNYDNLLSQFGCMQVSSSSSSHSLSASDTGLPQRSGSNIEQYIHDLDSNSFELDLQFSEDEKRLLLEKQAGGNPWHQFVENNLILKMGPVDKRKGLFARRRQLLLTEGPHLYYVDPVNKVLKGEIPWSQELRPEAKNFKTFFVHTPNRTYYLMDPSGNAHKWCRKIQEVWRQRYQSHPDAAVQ
# Assay: EGFR, MAPK and PDK Inhibitory Acitivity Assay
# Conditions: pH 7
# Description: (§1) EGFR was incubated with 8 mM MOPS (pH 7.0), 0.2 mM EDTA, 10 mM MnCl2, 0.1 mg/mL poly(Glu, Tyr) 4:1. MAPK1 was incubated with 25 mM Tris (pH 7.5), 0.02 mM EGTA, 250 µM substrate peptide (MAPK1-peptide), whereas PDK1 was incubated with 50 mM Tris (pH 7.5), 100 µM […] (PDKtide). The incubation was followed by the addition of 10 mM magnesium acetate and gamma-P33-ATP to each kinase. The kinase reactions were initiated with the addition of Mg:ATP mixture and stopped after 40 min of incubation with the addition of 3% phosphoric acid solution.
row,IC50,SMILES
1,> 300 µM,COc1ccc(C(=O)c2ccc(=O)n(CCN(C)C)c2)c(O)c1 [1-[2-(Dimethylamino)ethyl]-5-(2-hydroxy-4-methoxybenzoyl) pyridin-2(1H)-one (36)]

# Molecular target: T2, Epidermal growth factor receptor [1-973] (Homo sapiens, UniProt P00533)
# T2 construct: 1-973
# T2 sequence (P00533 1-973): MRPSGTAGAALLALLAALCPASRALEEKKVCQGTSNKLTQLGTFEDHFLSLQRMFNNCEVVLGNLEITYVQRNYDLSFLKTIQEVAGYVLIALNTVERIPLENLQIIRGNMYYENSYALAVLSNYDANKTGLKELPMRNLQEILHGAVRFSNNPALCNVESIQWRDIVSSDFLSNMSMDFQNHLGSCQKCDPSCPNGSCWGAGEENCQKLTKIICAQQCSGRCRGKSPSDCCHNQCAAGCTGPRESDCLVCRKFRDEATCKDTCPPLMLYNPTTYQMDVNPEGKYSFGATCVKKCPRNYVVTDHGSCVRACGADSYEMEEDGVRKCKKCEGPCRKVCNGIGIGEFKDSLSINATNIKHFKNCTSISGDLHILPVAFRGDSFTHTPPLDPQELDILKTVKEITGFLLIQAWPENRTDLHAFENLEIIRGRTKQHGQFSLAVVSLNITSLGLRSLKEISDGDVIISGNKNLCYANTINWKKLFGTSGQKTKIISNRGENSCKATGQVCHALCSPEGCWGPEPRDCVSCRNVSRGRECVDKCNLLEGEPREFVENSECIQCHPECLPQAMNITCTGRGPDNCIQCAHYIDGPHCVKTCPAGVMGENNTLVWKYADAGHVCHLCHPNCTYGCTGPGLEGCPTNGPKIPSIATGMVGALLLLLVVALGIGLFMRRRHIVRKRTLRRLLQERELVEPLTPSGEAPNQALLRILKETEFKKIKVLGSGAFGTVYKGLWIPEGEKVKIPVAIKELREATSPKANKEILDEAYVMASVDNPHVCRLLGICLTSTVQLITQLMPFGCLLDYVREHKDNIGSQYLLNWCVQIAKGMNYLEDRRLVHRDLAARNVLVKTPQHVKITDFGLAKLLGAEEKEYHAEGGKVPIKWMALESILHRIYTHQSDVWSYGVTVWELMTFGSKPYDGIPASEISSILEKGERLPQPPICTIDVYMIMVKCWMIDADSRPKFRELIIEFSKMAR
# Assay: EGFR, MAPK and PDK Inhibitory Acitivity Assay
# Conditions: pH 7
# Description: as §1
row,IC50,SMILES
1,> 300 µM,COc1ccc(C(=O)c2ccc(=O)n(CCN(C)C)c2)c(O)c1 [1-[2-(Dimethylamino)ethyl]-5-(2-hydroxy-4-methoxybenzoyl) pyridin-2(1H)-one (36)]

# Molecular target: Mitogen-activated protein kinase 1 (Homo sapiens, UniProt P28482)
# Sequence (P28482 whole entry): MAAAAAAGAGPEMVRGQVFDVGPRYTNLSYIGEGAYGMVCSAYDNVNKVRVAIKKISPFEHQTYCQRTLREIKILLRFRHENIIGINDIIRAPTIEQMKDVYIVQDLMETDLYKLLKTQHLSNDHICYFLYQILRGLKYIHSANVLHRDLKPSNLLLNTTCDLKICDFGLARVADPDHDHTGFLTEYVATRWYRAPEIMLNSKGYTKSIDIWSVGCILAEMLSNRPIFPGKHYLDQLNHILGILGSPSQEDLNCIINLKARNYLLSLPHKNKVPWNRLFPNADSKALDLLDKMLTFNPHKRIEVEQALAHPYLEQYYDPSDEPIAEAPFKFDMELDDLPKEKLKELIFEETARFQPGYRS
# Assay: EGFR, MAPK and PDK Inhibitory Acitivity Assay
# Conditions: pH 7
# Description: as §1
row,IC50,SMILES
1,> 300 µM,COc1ccc(C(=O)c2ccc(=O)n(CCN(C)C)c2)c(O)c1 [1-[2-(Dimethylamino)ethyl]-5-(2-hydroxy-4-methoxybenzoyl) pyridin-2(1H)-one (36)]

# Molecular target: Proto-oncogene tyrosine-protein kinase Src (c-Src)
# Assay: The kinase reaction was initiated with the incubation of the 2.5 µL of the reaction cocktail (0.7 nM of His6-Src kinase domain in kinase buffer) with 2.5 µL of prediluted compounds (dissolved in 10% DMSO, 4X target concentration) for 10 min at room temperature. The reaction cocktail contained 200 mM HEPES (pH 7.5), 16 mM MgC
# Conditions: not given
row,SMILES,IC50
1,COc1ccc(O)c(C(=O)c2ccc(=O)n(C3CCCCC3)c2)c1 [1-Cyclohexyl-5-(2-hydroxy-5-methoxybenzoyl)pyridin-2 (1H)-one (42)],24.8 µM
2,O=C(c1ccc(=O)n(C2CCCCC2)c1)c1ccccc1O [1-Cyclohexyl-5-(2-hydroxybenzoyl)pyridin-2(1H)-one (30)],25.4 µM
3,CCCCCCn1cc(C(=O)c2ccc(OC)cc2O)ccc1=O [1-Hexyl-5-(2-hydroxy-4-methoxybenzoyl)pyridin-2(1H)-one (34)],34.1 µM
4,CCCCCCn1cc(C(=O)c2cc(OC)ccc2O)ccc1=O [1-Hexyl-5-(2-hydroxy-5-methoxybenzoyl)pyridin-2(1H)-one (41)],23.5 µM
5,CCCCCCn1cc(C(=O)c2ccccc2O)ccc1=O [1-Hexyl-5-(2-hydroxybenzoyl)pyridin-2(1H)-one (28)],28.1 µM
6,COc1ccc(C(=O)c2ccc(=O)n(CCN(C)C)c2)c(O)c1 [1-[2-(Dimethylamino)ethyl]-5-(2-hydroxy-4-methoxybenzoyl) pyridin-2(1H)-one (36)],12.5 µM
7,CN(C)CCn1cc(C(=O)c2ccccc2O)ccc1=O [1-[2-(Dimethylamino)ethyl]-5-(2-hydroxybenzoyl)pyridin-2(1H)-one (31)],28.2 µM
8,"CCCCCCn1cc(C(=O)c2ccc(O)cc2O)ccc1=O [5-(2,4-Dihydroxybenzoyl)-1-hexylpyridin-2(1H)-one (32)]",27.7 µM
9,"CCCCCCn1cc(C(=O)c2cc(O)ccc2O)ccc1=O [5-(2,5-Dihydroxybenzoyl)-1-hexylpyridin-2(1H)-one (39)]",22.1 µM
10,"CC(C)n1cc(C(=O)c2cc(O)ccc2O)ccc1=O [5-(2,5-Dihydroxybenzoyl)-1-isopropylpyridin-2(1H)-one (40)]",26.1 µM

# Continued, values first:
row,IC50,SMILES
1,19.9 µM,COc1ccc(C(=O)c2ccc(=O)n(CCO)c2)c(O)c1 [5-(2-Hydroxy-4-methoxybenzoyl)-1-(2-hydroxyethyl)pyridin-2(1H)-one (38)]
2,47 µM,COc1ccc(C(=O)c2ccc(=O)n(C(C)C)c2)c(O)c1 [5-(2-Hydroxy-4-methoxybenzoyl)-1-isopropylpyridin-2(1H)-one (35)]
3,21.8 µM,CC(C)n1cc(C(=O)c2ccccc2O)ccc1=O [5-(2-Hydroxybenzoyl)-1-isopropylpyridin-2(1H)-one (29)]
4,20.1 µM,O=c1ccc(/C(=N\C2CCCCC2)c2ccccc2O)cn1C1CCCCC1 [(E)-1-Cyclohexyl-5-[(cyclohexylimino)(2-hydroxyphenyl)methyl]pyridin-2(1H)-one (45)]
5,37.9 µM,CC(C)/N=C(\c1ccc(=O)n(C(C)C)c1)c1ccccc1O [(E)-5-[(2-Hydroxyphenyl)(isopropylimino)methyl]-1-isopropylpyridin-2(1H)-one (44)]
6,57.8 µM,"CC(C)(C)OC(=O)NCCn1cc(C(=O)c2ccc(O)cc2O)ccc1=O [t-Butyl [2-{5-(2,4-dihydroxybenzoyl)-2-oxopyridin-1(2H)-yl}ethyl]carbamate (33)]"
7,27.6 µM,COc1ccc(C(=O)c2ccc(=O)n(CCNC(=O)OC(C)(C)C)c2)c(O)c1 [t-Butyl [2-{5-(2-hydroxy-4-methoxybenzoyl)-2-oxopyridin-1(2H)-yl}ethyl]carbamate (37)]
8,21.9 µM,COc1ccc(O)c(C(=O)c2ccc(=O)n(CCNC(=O)OC(C)(C)C)c2)c1 [t-Butyl [2-{5-(2-hydroxy-5-methoxybenzoyl)-2-oxopyridin-1(2H)-yl}ethyl]carbamate (43)]
